The numbers were not newly measured in US12702640B2, “Drug implants containing enzalutamide and methods of use thereof” (The Regents of the University of California, priority 2021, dated 2026), which cites them from elsewhere.

For the series the following is noted: assuming 240 mg daily dose; systemic (e.g., oral) administration.

`CNC(=O)c1ccc(N2C(=S)N(c3ccc(C#N)c(C(F)(F)F)c3)C(=O)C2(C)C)cc1F` [enzalutamide, Enzalutamide]: the “steady state blood plasma concentration” value is listed as “about 6 μg/ml”.
